From patent EP0398217B1, “Dehydrocholecalciferol derivatives” (F. HOFFMANN-LA ROCHE AG, priority 1989, dated 1990) come the findings set out here.

One series has as its system menschlichen Sebocyten. Put plainly: Inhibition of sebocyte proliferation in vitro (sebocytes cultured on 3T3 fibroblast layer, cell count by haemocytometer). Particulars: amount inhibiting sebocyte proliferation by 50% versus solvent-treated control culture, read-out: ED₅₀. It is filed as cell-based. How it is done: 22a, Abstract 46 beschriebenen Methode isoliert und auf einer Schicht von Mäusen-Fibroblasten 3T3 kultiviert. Durch enzymatische und mechanische Methoden wurde aus Hautgewebe eine Suspension von Sebocyten hergestellt. Dazu wurden die Zellen entweder in 2% Humanserum, 8% fetales Kälberserum und 4 µg/ml Dexamethason oder in 10% fetales Kälberserum und 4 µg/ml Dexamethason enthaltendem Iscove-Medium kultiviert
Den Kulturen wurden die Testverbindungen im Medium alle 48 Stunden zugegeben. Nach der letzten Zugabe wurden die Fibroblasten 3T3 mit 0,03% EDTA in PBS abgespült. Die zurückbleibenden Sebocyten-Kolonien wurden in 0,05% Trypsin/0,03% EDTA unter Bildung einer einheitlichen Zellensuspension von Sebocyten inkubiert. Die Zellen wurden dann verdünnt und mittels eines Hämocytometers gezählt.
Es wurden 10⁻² M äthanolische Lösungen der Testverbindungen vorbereitet und dann auf 10⁻⁶, 10⁻⁷, 10⁻⁸ und 10⁻⁹ M verdünnt.
Die Resultate sind in der nachstehenden Tabelle 1 als Menge der Verbindung, die die Proliferation der Sebocyten um 50% gegenüber einem Kontrollwert hemmen, angegeben. Der Kontrollwert wurde aus einer lediglich mit Lösungsmittel behandelten Zellenkultur erhalten. Tabelle 1

Series [1] in a line: Soft tissue calcification in rats (45Ca radioactivity in heart and kidneys). The conditions noted are these: ratio relative to compound X (=1); for Verkalkungsverhältnis Subkutan: subcutaneous administration for 4 days; for Verkalkungsverhältnis Topisch: topical administration for 4 days. In kind it is in vivo, Ratten. How it is done:
Zum Nachweis der Verkalkung von weichem Gewebe durch die Verbindungen der Formel I erhielten Ratten subkutane Injektionen von 40 µCi ⁴⁵Ca. Die Verbindungen wurden dann subkutan oder topisch während 4 Tagen den Tieren verabreicht. Die Ratten wurden 1 Tag nach der letzten Injektion getötet. Herz und Nieren wurden entfernt und mit Salpetersäure behandelt. Es wurde die Radioaktivität einer Menge von 0,2 ml dieser Präparation gemessen.

Series [2] concerns Talgdrüsen des Hamsterohrs. Put plainly: Effect on sebaceous glands of the hamster ear after oral administration (daily for 4 weeks). In kind it is in vivo, syrischen Goldhamstern. Particulars: change of sebaceous gland cross-section. The procedure:
Der Effekt von Verbindungen der Formel I auf die Talgdrüsen des Hamsterohrs nach oraler Verabreichung wurde ermittelt. Männlichen syrischen Goldhamstern wurden täglich 200 µl einer Lösung der Testverbindungen in Propylenglykol oral verabreicht. Nach 4 Wochen wurden die Tiere getötet. Die Fläche der Talgdrüsen auf den Ohren wurde ermittelt. Die Resultate sind in Tabelle 4 als Veränderung im Querschnitt der Talgdrüsen des Hamsterohrs angegeben: Tabelle 4

Series [3] relates to Talgdrüsen des Hamsterohrs. Put plainly: Topical activity on sebaceous glands of the hamster ear (daily application for 4 weeks). In kind it is in vivo. The conditions noted are these: change of sebaceous gland cross-section versus acetone controls. How it is done: Die topische Wirksamkeit von Verbindungen der Formel I gegen Akne wurde an Talgdrüsen des Hamsterohrs gemessen. Versuchstieren wurden 50 µl einer Lösung der Testverbindung und Kontrolltieren 50 µl Aceton täglich auf das Ohr appliziert. Nach 4 Wochen wurden die Tiere getötet. Die Fläche der Talgdrüsen auf den Ohren wurde ermittelt. In der Tabelle 2 sind die Resultate als %-Aenderung gegenüber Kontrolltieren der Veränderung des Querschnitts der Talgdrüsen auf dem Hamsterohr angegeben: Tabelle 2

Setting [4] is: oral, 5,00 µg/kg daily in propylene glycol.
The mark [5] stands for this setting: topical, 10,00 µg/Hamster daily.

Marks after values point to notes of the source that are not given here.

`C=C1/C(=C\C=C2/CCC[C@]3(C)[C@@H]([C@H](C)CCCC(C)(C)O)CC[C@@H]23)C[C@@H](O)C[C@@H]1O` [Verbindung X, 1α,25-Dihydroxycholecalciferol, reference compound]: the EC50 in the series with menschlichen Sebocyten came to 5 nM. Besides, in series [1], the “Verkalkungsverhältnis Subkutan” value was determined as 1 and the “Verkalkungsverhältnis Topisch” value is on record as 1.

In the case of `C=C1/C(=C\C=C2/CCC[C@]3(C)C([C@H](C)CCCC(C)(C)O)=CC[C@@H]23)C[C@@H](O)C[C@@H]1O` [A, 1α,25-Dihydroxy-16-dehydrocholecalciferol], in the series on menschlichen Sebocyten, the EC50 amounted to 1 nM.

For `C=C1CC[C@H](O)C/C1=C/C=C1\CCC[C@]2(C)C([C@H](C)CC#CC(C)(C)O)=CC[C@@H]12` [F, 25-Hydroxy-16-dehydro-23-didehydrocholecalciferol], the EC50 with menschlichen Sebocyten was 100 nM. The “% Veränderung” value was -16* % in series [2] (oral, 0,05 µg/kg daily in propylene glycol); -23** % in series [2] (oral, 0,50 µg/kg daily in propylene glycol); -42*** % in series [2] (setting [4]); -55*** % in series [2] (oral, 50,00 µg/kg daily in propylene glycol). In addition, the “% Aenderung” value is listed as -23% in series [3] (topical, 0,10 µg/Hamster daily); -40% in series [3] (topical, 1,00 µg/Hamster daily); -64% in series [3] (setting [5]). In addition, the “Verkalkungsverhältnis Subkutan” value in series [1] is given as >1400. In addition, the “Verkalkungsverhältnis Topisch” value in series [1] is recorded as >34.

`C=C1/C(=C\C=C2/CCC[C@]3(C)C([C@H](C)CC#CC(C)(C)O)=CC[C@@H]23)C[C@@H](O)C[C@@H]1O` [Verbindung E, 1α,25-Dihydroxy-16-dehydro-23-didehydrocholecalciferol]: the EC50 in the series on menschlichen Sebocyten stood at 1 nM. Further, in series [1], the “Verkalkungsverhältnis Subkutan” value was 47 and the “Verkalkungsverhältnis Topisch” value is > 1.

Consider `C=C1CC[C@H](O)C/C1=C/C=C1\CCC[C@]2(C)C([C@H](C)C/C=C/C(C)(C)O)=CC[C@@H]12` [Verbindung D, 25-Hydroxy-16,23E-bisdehydrocholecalciferol], for which, in the series on menschlichen Sebocyten, the EC50 is > 1000 nM. Besides, the “% Veränderung” value in series [2] (oral, 2,50 µg/kg daily in propylene glycol) is -15* %; in series [2] (setting [4]), -22** %; in series [2] (oral, 10,00 µg/kg daily in propylene glycol) it was -27*** %; in series [2] (oral, 20,00 µg/kg daily in propylene glycol), -36*** %. Further, the “% Aenderung” value is reported as -16% in series [3] (topical, 0,10 µg/Hamster daily); -16% in series [3] (topical, 1,00 µg/Hamster daily); -43% in series [3] (setting [5]). Besides, the “Verkalkungsverhältnis Subkutan” value in series [1] is on record as >1400. The “Verkalkungsverhältnis Topisch” value in series [1] is on record as >34.
